Measured values from paper PMC2725291, “Genetic and Molecular Basis of Individual Differences in Human Umami Taste Perception” (PLoS ONE, 2009).
Where a name gives a salt, the structure may show the parent alone.

Legend:
254 Japanese subjects = assay: Taste recognition threshold measurement (staircase method); type: in vivo, human; conditions: other basic taste stimuli, Figure S1
From the text: A total of 254 healthy, non-obese, non-diabetic Japanese volunteers [male/female: 141/113, age: 20–36, body mass index (BMI); 16.5–24.8] participated in this study. The purpose of the study as well as the methods and procedure were explained to the participants and the patients in this manuscript have given written informed consent. All protocols were approved by the local ethics committee at Kyushu University. Subjects were asked to refrain from consuming alcohol the day before testing, caffeine on the day of testing, and food during the experimentation period. The inclusion criteria were satisfactory state of oral hygiene, non-smoking, regular work, sleep, and meal schedules.
As MSG contains sodium, great care was taken to compare individual sensitivities to MSG relative to NaCl. […] The differences in concentrations in the present study were in 0.3 log steps, which mean step-wise increases in concentration by a factor of 2.0. All solutions were made up in distilled water and used at room temperature. The testing procedure was the staircase-method modified from Pasquet et al.. Each subject evaluated all 7 tastants. The seven series of solutions were presented one after another within a single section. Within each series, the solutions with each 2.0 ml were applied to the whole tongue of each subject with a pipet in order of ascending concentrations. The subjects were asked not to swallow test solutions and rinse their mouth between two solutions with distilled water. The subject was requested to correctly name the taste quality in each series. Once the taste of two successive concentrations was recognized successfully, the subject was given the previous unrecognized concentration (first reversal). The points at which concentration sequence changed from a decrease to an increase or vice versa were designated “reversals”. The procedure was terminated after five reversals, and the threshold was calculated as the mean of the concentration values of the last four reversals.
Student's t-test was used for detection of differences in the mean recognition thresholds between males and females. The χ^2 test was used for checking Hardy-Weinberg Equilibrium (HWE) for the genotype frequencies in samples to control genotyping errors, for detection of differences in genotype and allele frequencies between high and low taste recognition threshold groups. Yates'χ^2 test was used when the number was less than 10. The mean values (the center±S.E. of gaussian curve on X-axis) in the distribution of recognition thresholds defined by TAS1R1/TAS1R3 haplotypes (TAS1R1-372A/TAS1R3-757R homozygotes, TAS1R1-372T/TAS1R3-757R homozygotes, homo- and heterozygotes containing TAS1R3-757C) were calculated using gauss fit function of Origin 5.0 (OriginLab Corp). For Ca^2+ imaging analysis, data were normalized to response to 10 µM ISO, and mean values (±S.E.) were calculated from 10∼18 independent analyses. EC50 values were calculated from individual cumulative concentration-response data using sigmoid fit functions of Origin 5.0. One factor ANOVAs were conducted for detection of differences in the distributions of recognition thresholds for umami substances among 3 groups defined by TAS1R1/TAS1R3 haplotypes, and in the responses to 5, 20 and 50 mM MSG or 0.3, 5 and 50 mM M+I among TAS1R1/TAS1R3 variants in Ca^2+ imaging analysis. When the ANOVA was significant, post-hoc Student's t-test or Fisher's PLSD test was performed to compare individual means at each umami compound or concentration. Significance level was 0.05.

[1] = target: T1, TAS1R1-372A and TAS1R3-757R (Homo sapiens, UniProt Q7RTX0+Q7RTX1, C757R); assay: Ca2+ imaging (bath perfusion) in HEK cells transfected with TAS1R1-372A, TAS1R3-757R and Gα16-i3; type: cell-based
T1 construct: expressed in transfected cells; host or cells: HEK293
T1 sequence (Q7RTX1 21-841): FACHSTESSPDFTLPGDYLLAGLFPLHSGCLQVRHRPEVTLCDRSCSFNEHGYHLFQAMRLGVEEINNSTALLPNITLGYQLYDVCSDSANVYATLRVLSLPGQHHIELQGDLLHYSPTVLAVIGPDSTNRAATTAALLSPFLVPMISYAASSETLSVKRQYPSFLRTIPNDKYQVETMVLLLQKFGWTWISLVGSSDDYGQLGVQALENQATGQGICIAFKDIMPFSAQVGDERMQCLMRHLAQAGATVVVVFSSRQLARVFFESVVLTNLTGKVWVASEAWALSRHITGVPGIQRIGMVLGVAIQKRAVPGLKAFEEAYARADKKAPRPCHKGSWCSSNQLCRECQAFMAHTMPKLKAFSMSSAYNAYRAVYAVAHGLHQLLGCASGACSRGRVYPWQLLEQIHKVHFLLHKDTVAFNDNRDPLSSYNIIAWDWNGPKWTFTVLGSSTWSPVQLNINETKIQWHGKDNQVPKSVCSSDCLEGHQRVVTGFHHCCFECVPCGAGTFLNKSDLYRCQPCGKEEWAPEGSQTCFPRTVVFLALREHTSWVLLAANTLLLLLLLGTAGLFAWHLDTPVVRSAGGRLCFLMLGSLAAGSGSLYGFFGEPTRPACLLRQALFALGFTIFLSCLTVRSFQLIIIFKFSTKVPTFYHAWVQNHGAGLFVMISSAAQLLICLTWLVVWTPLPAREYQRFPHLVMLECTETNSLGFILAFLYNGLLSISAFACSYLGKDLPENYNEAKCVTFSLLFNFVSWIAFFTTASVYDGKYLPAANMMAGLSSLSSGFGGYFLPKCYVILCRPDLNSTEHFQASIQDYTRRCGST
T1 sequence (Q7RTX0 21-852 C757R): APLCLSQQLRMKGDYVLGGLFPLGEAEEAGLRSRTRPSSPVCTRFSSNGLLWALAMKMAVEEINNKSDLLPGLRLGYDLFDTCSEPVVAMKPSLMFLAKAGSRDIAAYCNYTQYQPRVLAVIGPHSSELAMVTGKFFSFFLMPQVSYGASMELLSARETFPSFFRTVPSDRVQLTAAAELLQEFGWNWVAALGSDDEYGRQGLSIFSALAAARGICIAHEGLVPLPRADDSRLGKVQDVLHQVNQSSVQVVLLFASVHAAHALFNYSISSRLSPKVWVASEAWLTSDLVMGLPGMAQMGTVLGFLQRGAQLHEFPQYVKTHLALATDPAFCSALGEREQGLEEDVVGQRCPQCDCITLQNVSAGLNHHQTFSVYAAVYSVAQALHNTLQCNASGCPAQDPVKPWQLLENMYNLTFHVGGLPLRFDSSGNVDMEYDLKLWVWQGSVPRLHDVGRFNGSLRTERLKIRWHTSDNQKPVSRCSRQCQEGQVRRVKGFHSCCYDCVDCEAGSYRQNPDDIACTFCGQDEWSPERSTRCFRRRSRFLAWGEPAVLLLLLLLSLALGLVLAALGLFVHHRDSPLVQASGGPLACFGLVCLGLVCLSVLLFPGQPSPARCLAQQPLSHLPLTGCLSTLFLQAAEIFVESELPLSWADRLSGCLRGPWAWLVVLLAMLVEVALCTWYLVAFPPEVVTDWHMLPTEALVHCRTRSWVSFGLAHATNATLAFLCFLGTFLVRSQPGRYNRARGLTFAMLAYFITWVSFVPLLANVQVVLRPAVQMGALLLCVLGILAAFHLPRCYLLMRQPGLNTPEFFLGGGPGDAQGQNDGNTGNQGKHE
Description: HEK293 cells were cultured at 37°C under a humidified atmosphere containing 5% CO2 in Dulbecco's modified Eagle's medium supplemented with 10% fetal bovine serum. To obtain reproducible Ca^2+ responses, cells were split every 2 days before cells become confluent. Cells were discarded after 2 months of passages and new cells were prepared from frozen-stock. For calcium imaging experiments, cells were seeded onto a 35 mm recording chamber or poly-D-lysine coated 96-well black-wall, clear-bottom recording plates. After 24 hrs at 37°C, confluent cells (60∼70%) were washed in OptiMEM medium supplemented with GlutaMAX-I (invitrogen) and plasmid DNAs were transiently cotransfected into HEK293 cells using Lipofectamine2000 regent (invitrogen) (2.0 µl per 1.0 µg DNA). TAS1Rs (or their mutants) and Gαl6-i3 were transfected using 1.5 and 1.0 µg of plasmid for 35 mm recording chambers, 0.09 and 0.06 µg of plasmid per well for 96-well plates, respectively. […] Immuno staining and Ca^2+ imaging assays were performed 36∼40 hrs after transfection.
Two Ca^2+ imaging systems were used. A bath perfusion system was used for kinetics of activation. Transfected cells in 35 mm recording chambers were washed in Hank's balanced salt solution (HBSS) containing 10 mM HEPES, pH 7.4, and loaded with 3.0 µM Fluo-4 acetoxymethyl ester (invitrogen) for 1.0 hr at 37°C. The dye-loaded cells were subjected to Ca^2+ imaging. Taste solutions diluted in HBSS were applied sequentially to the cells for 30 s with a peristaltic pump at a flow rate of 1.5 ml/min, and fluorescence images were obtained using a S Fluor ×20/0.75 objective lens (Nikon) via a cooled-CCD camera (C6790, Hamamatsu Photonics) fitted to a TE300 microscope (Nikon). Acquisition and analysis of these fluorescence images used AquaCosmos software (v. 1.3, Hamamatsu Photonics). A 3 min interval was left between each tastant application to ensure that the cells were not desensitized as a result of the previous application of tastants. Responses were measured from 30 individual responding cells. […] Isoproterenol (ISO, 10 µM) was used as positive control, which stimulates endogenous β-adrenergic receptors, providing that the Gα16-dependent signal transduction cascade was functional.

TAS1R1/TAS1R3 variants = assay: Ca2+ imaging (FlexStation II), comparison across receptor variants (AR, TR, AC, TC); type: cell-based, human; conditions: lactisole 5 mM; 20 mM MSG+0.5 mM IMP; Figure S5
From the text: Intronless human TAS1Rs and Gαl6 expression constructs were generated in the pEF-DEST51 Gateway vector (Invitrogen) by genomic DNA-based methods. To subclone each gene into the vector, a Kozak cassette was introduced at the 5′ end before the start codon. Gαl6 chimeras were generated by PCR with mutagenic primers. The carboxyl-terminal tail of Gαl6, five-residue (EINLL) was replaced by its counterpart from Gαi3 (ECGLY; Gα16-i3), Gαgust (DCGLF; Gα16-gust), and Gα16-gust44 was generated as described. The integrity of all DNA constructs was confirmed by DNA sequencing. Point mutations in TAS1Rs were made using the same overlapping PCR strategy with mutagenic primers.
HEK293 cells were cultured at 37°C under a humidified atmosphere containing 5% CO2 in Dulbecco's modified Eagle's medium supplemented with 10% fetal bovine serum. To obtain reproducible Ca^2+ responses, cells were split every 2 days before cells become confluent. Cells were discarded after 2 months of passages and new cells were prepared from frozen-stock. For calcium imaging experiments, cells were seeded onto a 35 mm recording chamber or poly-D-lysine coated 96-well black-wall, clear-bottom recording plates. After 24 hrs at 37°C, confluent cells (60∼70%) were washed in OptiMEM medium supplemented with GlutaMAX-I (invitrogen) and plasmid DNAs were transiently cotransfected into HEK293 cells using Lipofectamine2000 regent (invitrogen) (2.0 µl per 1.0 µg DNA). […]
Student's t-test was used for detection of differences in the mean recognition thresholds between males and females. […] The mean values (the center±S.E. of gaussian curve on X-axis) in the distribution of recognition thresholds defined by TAS1R1/TAS1R3 haplotypes (TAS1R1-372A/TAS1R3-757R homozygotes, TAS1R1-372T/TAS1R3-757R homozygotes, homo- and heterozygotes containing TAS1R3-757C) were calculated using gauss fit function of Origin 5.0 (OriginLab Corp). For Ca^2+ imaging analysis, data were normalized to response to 10 µM ISO, and mean values (±S.E.) were calculated from 10∼18 independent analyses.

Row | SMILES | differences in distributions of recognition thresholds among TR, AR and TAS1R3-757C groups (254 Japanese subjects) | Ca2+ response of transfected HEK cells ([1]; 50 mM) | further results
1 | Cl [HCl] | no such differences |  | 
2 | OC[C@H]1O[C@@](CO)(O[C@H]2O[C@H](CO)[C@@H](O)[C@H](O)[C@H]2O)[C@@H](O)[C@@H]1O [sucrose] | no such differences | did not respond | 
3 | OC[C@H]1OC(O)[C@H](O)[C@@H](O)[C@@H]1O (stereo partly shown) [glucose] |  | did not respond | 
4 | C[C@H](NC(=NCC(=O)O)Nc1ccc(C#N)cc1)c1ccccc1 [SC45647] |  |  | Ca2+ response of transfected HEK cells ([1]; 0.3 mM (data not shown)): did not respond
5 | O=C1NS(=O)(=O)c2ccccc21 [saccharin] |  |  | Ca2+ response of transfected HEK cells ([1]; 1 mM (data not shown)): did not respond
6 | [Cl-].[Na+] [NaCl] | no such differences | did not respond | 
7 | NC(=S)Nc1ccccc1 [PTC, phenylthiocarbamide] | no such differences |  | 
8 | COc1ccc(OC(C)C(=O)O)cc1 (stereo not shown) [lactisole] |  |  | inhibition effect on the responses of TAS1R1/TAS1R3 variants (TAS1R1/TAS1R3 variants): clearly observed
